Test results reported in PubChem BioAssay AID493003 (Sanford-Burnham Center for Chemical Genomics, 2010).
pIC50: −log10 of the molar value. The source made the active and inactive calls. The rule behind the calls is not given here.

These molecules were tested on S. cerevisiae tim10-1 mutant growth, luminescence (assay: growth inhibitors of tim10-1 mutant yeast, dose response, luminescence, S. cerevisiae, uHTS hits (AID 493003);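 note: yeast growth measured after about 22 hours at 25 °C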).
Molecule `CN1CCN(c2cc(N3CCc4ccccc4C3)c(F)cc2[N+](=O)[O-])CC1` has a pIC50 of 4.15.
`CCSc1nnc(NC(=O)c2nc(-c3ccccc3)n(-c3ccccc3)n2)s1` gave a pIC50 of 4.59.
Molecule `O=[N+]([O-])c1cc(/C=N/O)ccc1Oc1ccccc1Cl` has a pIC50 of 4.47.
`N/C(Cc1cccs1)=N\OC(=O)COc1ccc(Cl)cc1Cl` gave a pIC50 of 4.61.
Molecule `O=C(c1ccc2nc(N3CCOCC3)sc2c1)N1CCC(Cc2ccccc2)CC1` has a pIC50 of 4.78.
`CCCN(Cc1ccccc1)C(=S)Nc1cccc(C(F)(F)F)c1` showed a pIC50 of 4.18.
For `Cc1cc(C)n(-c2nc(-n3nc(C)cc3C)c3c4c(sc3n2)COC(C)(C)C4)n1`, the pIC50 was 4.72.
Work on `C(=N\N1CCOCC1)/c1cn(-c2ccccc2)nc1-c1ccccc1` yielded a pIC50 of 4.47.
For `O=C(/C=C/c1ccc2c(c1)OCCCO2)c1ccccc1O`, the pIC50 was 4.91.
In the case of `Clc1ccccc1Nc1nnc(-c2ccncc2)s1`, the pIC50 was 4.28.
Molecule `CCCn1c(CC)nc([N+](=O)[O-])c1S(=O)(=O)c1ccccc1` has a pIC50 of 4.88.
`CN(C1CCCCC1)S(=O)(=O)c1ccc(NC(=O)c2ccco2)cc1` gave a pIC50 of 4.42.
`Cc1noc(NS(=O)(=O)c2ccc(NC(=O)Nc3ccc(Cl)c(Cl)c3)cc2)c1C` gave a pIC50 of 4.37.
In the case of `N/C(CCS(=O)(=O)c1ccc(Cl)cc1)=N\OC(=O)c1ccccc1C(F)(F)F`, the pIC50 was 4.43.
For `COc1ccc(NCc2nnc(SCc3ccc(Cl)cc3)n2-c2ccccc2)cc1`, the pIC50 was 4.76.
`Cc1onc(-c2ccc3c(c2)OCO3)c1-c1ccc2[nH]ccc2c1` gave a pIC50 of 4.84.
Work on `Cn1c(-c2ccccc2O)cc2ccccc21` yielded a pIC50 of 4.53.
Work on `O=C(Nc1cccc(N2C(=O)C=CC2=O)c1)c1cccs1` yielded a pIC50 of 5.36.
`O=C(/C=C\c1ccc(-c2ccccc2)o1)c1ccccc1` gave a pIC50 of 5.26.
`Cc1cc(C)c(CSc2ncc(-c3ccc([N+](=O)[O-])cc3)[nH]2)c(C)c1` showed a pIC50 of 4.89.
Work on `Cc1cc(NC(=O)c2ccccc2Oc2ccccc2)no1` yielded a pIC50 of 4.22.
`CC1CCCCN1S(=O)(=O)c1ccc(NC(=O)c2ccco2)cc1` (stereo not drawn) showed a pIC50 of 4.64.
`O=C(/C(N=Nc1cccc(C(F)(F)F)c1)=C(/O)c1cccs1)C(F)(F)F` was tested, and the IC50 was > 100 µM (inactive).
Molecule `CCOC(=O)N1CCN(S(=O)(=O)c2ccc3c(c2)CCN3C(=O)C2CCC2)CC1` has a pIC50 of 4.47.
With `COC(=O)c1cc(NC(=S)Nc2cc(Cl)cc(Cl)c2)cc(C(=O)OC)c1` the pIC50 was 4.64.
With `O=C(c1cc(COc2cccc(C(F)(F)F)c2)on1)N1C[C@@H]2CCC[C@H]1C2` the pIC50 was 4.56.
`COc1ccc(/C=C2\CCc3ccccc3C2=O)cc1Cn1cccn1` showed a pIC50 of 4.59.
Molecule `CC(NC(=O)Nc1cccc([N+](=O)[O-])c1)(C(F)(F)F)C(F)(F)F` has a pIC50 of 4.24.
`O=C(Nc1ncc2c(n1)-c1ccccc1CC2)c1cccc(Cl)c1` gave a pIC50 of 4.28.
Molecule `O=C(Nc1cccc(C(=O)N2CCN(c3cccc(Cl)c3)CC2)c1)c1ccccc1` has a pIC50 of 4.45.
In the case of `Cn1c(NCc2c(O)ccc3ccccc23)nc2ccccc21`, the IC50 was > 100 µM (inactive).
Molecule `COc1ccc(C(=O)O/N=C(\N)c2ccc(Cl)cc2)cc1` has a pIC50 of 4.88.
`O=C(NNC(=S)Nc1cccc(C(F)(F)F)c1)c1cccc(Cl)c1` was tested, and the pIC50 was 5.00.
Molecule `OC(COc1ccc2ccccc2c1Br)Cn1cnc(-c2ccccc2)c1` (stereo not drawn) has a pIC50 of 4.74.
For `c1ccc(-c2cc(-c3nc4ccccc4[nH]3)c3ccccc3n2)cc1`, the pIC50 was 4.30.
`Oc1ccccc1-c1nc(NCc2cccnc2)c2ccccc2n1` showed a pIC50 of 4.22.
In the case of `COc1cc(OC)c(C(=O)O/N=C(\N)c2ccc(C)cc2)cc1OC`, the pIC50 was 4.84.
In the case of `Oc1cc(-c2ccccc2)c2ccccc2c1`, the pIC50 was 4.13.
`O=C1CC(SCc2nc3ccccc3[nH]2)C(=O)N1c1ccc(F)c(Cl)c1` (stereo not drawn) gave a pIC50 of 4.49.
`O=C(O)c1ccc(C=C(c2nc3ccccc3s2)c2nc3ccccc3s2)cc1` was tested, and the IC50 was > 100 µM (inactive).
`COc1ccc2cc3cc(C(=O)NCCN4CCN(Cc5ccccc5)CC4)oc3nc2c1` showed a pIC50 of 4.55.
`COc1cccc(N2C(C(C)=O)=NN(c3ccccc3)C2c2ccc(N3CCOCC3)cc2)c1` (stereo not drawn) was tested, and the IC50 was > 100 µM (inactive).
With `COc1ccc(NC(C)(C)c2nnnn2-c2c(C)cccc2C)cc1` the pIC50 was 4.44.
`O=C(CSCC(=O)OCn1nnc2ccccc2c1=O)Nc1ccc(Cl)cc1` showed a pIC50 of 4.69.
Work on `Cc1ccc(C(=O)O/N=C(\N)c2ccccn2)c(C)c1` yielded a pIC50 of 4.77.
`CN1CCCN(C(c2ccccc2)c2ccc(Cl)cc2)CC1` (stereo not drawn) was tested, and the pIC50 was 4.51.
For `CCOC(=O)C1CCN(C(=O)c2oc3ccc4c(c3c2C)C(O)CC2(CCCCC2)O4)CC1` (stereo not drawn), the pIC50 was 4.59.
`COc1ccc2[nH]c3c(=O)n4c(nc3c2c1)SCCC4` was tested, and the pIC50 was 4.39.
In the case of `CC(C)C[C@@H](CSc1ccc(Br)cc1)N1CCN(CC(C)C)CCC1=O`, the pIC50 was 4.59.
Molecule `CCc1nc(C)cn1S(=O)(=O)c1cc([N+](=O)[O-])ccc1Cl` has a pIC50 of 4.77.
In the case of `CCOc1cc(-c2c(C#N)c(N)nc3c2CCCC3C)ccc1O` (stereo not drawn), the pIC50 was 4.36.
`CCSc1nc2ccccc2n1C(=O)/C=C\c1ccc(OC)c(OC)c1` was tested, and the pIC50 was 4.98.
In the case of `O=S(=O)(c1ccc2c(c1)OCCO2)N1CCC(O)(c2ccc(Cl)cc2)CC1`, the pIC50 was 4.17.
For `O=c1c2ccccc2[se]n1-c1ccccc1`, the pIC50 was 5.00.
`COc1ccc(/C=C/C(=O)c2ccccc2)cc1Cn1nnc2ccccc21` gave a pIC50 of 5.19.
`O=C(N/N=C/c1ccc[nH]1)c1cc(-c2ccc(Cl)cc2)nc2ccccc12` was tested, and the pIC50 was 5.00.
`Cc1cccc(C(=O)O/N=C(/c2ccccc2)c2ccncc2)c1` was tested, and the pIC50 was 4.58.
Molecule `CCCCc1ccc(NC(=S)Nc2ccc(Nc3ccc(OC)cc3)cc2)cc1` has a pIC50 of 4.89.
In the case of `Cc1ccc(-c2csc3ncnc(Nc4ccc(N5CCOCC5)cc4)c23)cc1`, the pIC50 was 4.27.
For `O=[N+]([O-])/C(C(Cl)=C(Cl)Cl)=C(\Sc1ccccc1)N1CCCCC1`, the pIC50 was 4.28.
Work on `COc1cc(/C=C/c2ccc3cccc(O)c3n2)c(Br)cc1O` yielded a pIC50 of 4.81.
`Cc1nc(CN2CCN(S(=O)(=O)c3c(Cl)cc(Br)cc3Cl)CC2)cs1` gave a pIC50 of 4.73.
`COc1cccc(Nc2ncccc2C(=O)Nc2ccccc2)c1` showed a pIC50 of 4.50.
Work on `COC(=O)c1ccc(NC(=O)CN2CCN(S(=O)(=O)c3ccc(Br)cc3)CC2)cc1` yielded a pIC50 of 4.21.
Molecule `C=CCc1ccc(O)c(-c2cc(CC=C)ccc2O)c1` has a pIC50 of 4.17.
With `CCOC(=O)Cc1nnc2c(Nc3ccc(Cl)cc3)nc3nonc3n12` the pIC50 was 4.39.
`Cc1cc(Br)c(Cl)cc1NC(=O)CN1C(=O)C2C3CC(c4ccccc4)C(C3)C2C1=O` (stereo not drawn) gave a pIC50 of 4.57.
With `c1ccc(Nc2cccc(Nc3ccccc3)n2)cc1` the pIC50 was 4.85.
Molecule `COc1cccc(/C=N/n2c(C3CCCCC3)n[nH]c2=S)c1O` has a pIC50 of 4.49.
Molecule `CCOC(=O)n1c(=O)n(Cc2ccccc2Cl)c2ccccc21` has a pIC50 of 4.56.
`CCOC(=O)c1c(-c2ccccc2)oc2cc(Br)c(O)cc12` gave a pIC50 of 4.69.
Work on `Cc1nn(Cc2c(F)c(F)c(F)c(F)c2F)c(C)c1NC(=O)c1ccc(COc2ccccc2Cl)o1` yielded a pIC50 of 4.22.
`Oc1c(Cl)cc(Cl)cc1/C=C/c1ccc2cccc(O)c2n1` was tested, and the pIC50 was 4.37.
For `Cc1ccc(CNC(=O)c2ccc(Cn3nc(C)c(Cl)c3C)o2)cc1`, the pIC50 was 4.99.
For `COC(=O)COc1ccc(S(=O)(=O)N2CCN(c3ccccc3F)CC2)cc1C`, the IC50 was > 100 µM (inactive).
`CCN(CC)C1CC(=O)N(c2cccc(Cl)c2)C1=O` (stereo not drawn) showed a pIC50 of 5.03.
`Cn1c(Cl)cnc1C1CC(=O)c2cc(Cl)ccc2O1` (stereo not drawn) gave a pIC50 of 5.08.
`N=c1c2c(-c3ccccc3)c(-c3ccccc3)n(Cc3ccccc3)c2ncn1CCO` gave a pIC50 of 4.62.
